Experimental data as given in US12655139B2, “Isoxazolidines as RIPK1 inhibitors and use thereof” (SANOFI, priority 2020, dated 2026).
Where a name gives a salt, the structure may show the parent alone. Read-outs that look alike come from different tables or passages of the source.

What was measured:
[1] = target: T1, hRIPK1 (aa 1-375) fusion protein (Homo sapiens, UniProt Q13546); assay: ADP-Glo kinase assay, RIPK1 autophosphorylation; type: biochemical
T1 construct: hRIPK1 (aa 1-375) fusion protein
T1 sequence (Q13546 1-375): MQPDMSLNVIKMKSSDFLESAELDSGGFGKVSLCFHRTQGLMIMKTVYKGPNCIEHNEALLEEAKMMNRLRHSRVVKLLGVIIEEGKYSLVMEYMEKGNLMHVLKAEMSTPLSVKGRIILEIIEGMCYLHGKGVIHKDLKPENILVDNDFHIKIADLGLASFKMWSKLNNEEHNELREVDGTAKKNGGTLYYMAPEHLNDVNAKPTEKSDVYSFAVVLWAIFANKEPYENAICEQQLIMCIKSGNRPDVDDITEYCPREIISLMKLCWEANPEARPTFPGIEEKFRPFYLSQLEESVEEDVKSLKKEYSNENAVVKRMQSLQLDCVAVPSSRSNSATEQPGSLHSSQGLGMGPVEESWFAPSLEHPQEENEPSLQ
Procedure: Evaluation of Receptor-Interacting Protein Kinase 1 Inhibition.
The catalytic activity of RIPK1 was measured by monitoring the conversion of Adenosine triphosphate (ATP) to Adenosine diphosphate (ADP) due to autophosphorylation using an ADP-Glo kinase kit (Promega, catalog no. V9104).
After another 240 minutes incubation at room temperature, 5 μl Promega ADP-Glo reagent I were added to quench the reaction and deplete unconsumed ATP. After an incubation period of 30 minutes, 10 μl Promega ADP-Glo detection reagent II were added resulting in conversion of ADP to ATP, which generates a light-reaction between luciferase and luciferin. Luminescence was quantified after 30 minutes with a Pherastar FS (BMG LABTECH, Ortenberg).
The adjustment was obtained by nonlinear regression using the Levenberg Marquardt algorithm.

U937 cells = assay: Cellular assay in U937 cells on cell death (necroptosis), TNFα/zVAD.fmk; type: cell-based
Text: Cellular Assay in U937 Cells to Measure the Activity of RIPK1-Inhibitors on Cell Death (Necroptosis).
Cell death was quantified in 96 well plates by determination of the amount of live cell using a CellTiter 96 AQueous reagent (Promega), a calorimetric method to measure the amount of live cells by reducing tetrazolium compound [3-(4,5-dimethylthiazol-2-yl)-5-(3-carboxymethoxyphenyl)-2-(4-sulfophenyl)-2H-tetrazolium, inner salt; MTS] into formazan. Absorbance of formazan was read at 490 nm. The inhibitory activity of the test compound was quantified in a concentration response curve (CRC) experiment. Compounds were obtained as 10 mM stock solutions and were diluted 1 to 10 volumes with DMSO to yield a 1 mM solution. From this solution 2 μl were diluted with 998 μl growth medium. 100 μl of 2 μM compound solution was further diluted sequentially with a dilution factor of 2.5 by adding 150 μl growth medium. A total of 10 concentrations were tested ranging from 10 μM to 0.26 nM or from 1 μM to 0.07 nM.
U937 cells were cultured in RPMI1640 Glutamax and 10% heat inactivated FBS. 50 μl cell suspension containing 1×10^6 cells/ml supplemented with 50 μM zVAD.fmk (Benzyloxycarbonyl-Val-Ala-Asp (OMe) fluoromethylketone) and 100 ng/ml recombinant human TNFα were dispensed in each well of a 96-well plate. 50 μl of compound dilutions (see above) were added and the cell suspension incubated overnight (18 to 24 hours) at 37° C., 5% CO2 in a humidified atmosphere (95% rH). High (no compound) and low control (no TNFα, zVAD.fmk) were tested with 7 replicates; all compound concentrations were tested in duplicates on each experimental plate.
CellTiter 96 Aqueous reagent was mixed (100 μl PMS (phenazine methosulfate) solution/2 ml MTS (3-(4,5-[…])-5-(3-carboxymethoxyphenyl)-2-(4-sulfophenyl)-2H-tetrazolium, inner salt) solution) and 20 μl were added per well. After 4 hours incubation at 37° C. (5% CO2 95% rH) optical density was measured at 490 nm on a microplate reader (Tecan Infinite M1000).
The % inhibition is expressed as percentage of the maximal inhibition value obtained in the absence of TNFα/zVAD.fmc.

[2] = Homo sapiens, U-937, Table 2, read-out: U937 IC50
[3] = Homo sapiens, U-937, Key compound table 4, read-out: U937 IC50 (uM) Mean

| IC50 ([1]; Table 1) [µM] | Compound | IC50 (U937 cells; [2]) [µM] | also measured |
| --- | --- | --- | --- |
| 0.0134 | C[S+]([O-])c1nc(N2CCC(C(=O)N3OCC[C@H]3c3cncc(C#N)c3)CC2)ncc1F (some centres unmarked) [Ex. 104] | 0.736 |  |
| 0.069 | Cc1coc([C@@H]2CCON2C(=O)C2CCN(c3nccc(C#N)n3)CC2)c1 [compound 150, (S)-2-(4-(3-(4-methylfuran-2-yl)isoxazolidine-2-carbonyl)piperidin-1-yl)pyrimidine-4-carbonitrile] | 0.0235 |  |
| 0.0649 | Cn1cc(C2CCON2C(=O)C2CCN(c3nccc(C#N)n3)CC2)cn1 (racemic) [Ex. 047*] | 0.549 |  |
| 0.729 | N#Cc1ccnc(N2CCC(C(=O)N3OCCC3c3ccc4nccn4c3)CC2)n1 (racemic) [Example 014, 2-[4-[3-imidazo[1,2-a]pyridin-6-ylisoxazolidine-2-carbonyl]-1-piperidyl] pyrimidine-4-carbonitrile TFA salt] | > 10 |  |
| 0.511 | N#Cc1cncc([C@@H]2CCON2C(=O)C2CCN(c3ncc(F)c(OCC(=O)O)n3)CC2)c1 [Ex. 033, 2-[2-[4-[(3S)-3-(5-Cyano-3-pyridyl)isoxazolidine-2-carbonyl]-1-piperidyl]-5-fluoro-pyrimidin-4-yl]oxyacetic acid TFA salt] | > 10 |  |
| 0.0217 | Cc1nc([C@@H]2CCON2C(=O)C2CCN(c3ncc(F)c(C(N)=O)n3)CC2)cs1 [Ex. 170] | 0.0165 |  |
| 0.134 | COC(=O)c1ccnc(N2CCC(C(=O)N3OCCC3c3cncc(F)c3)CC2)n1 (racemic) [Ex. 051*, Methyl 2-[4-[3-(5-fluoro-3-pyridyl)isoxazolidine-2-carbonyl]-1-piperidyl]pyrimidine-4-carboxylate] | 0.678 |  |
| 0.0454 | N#Cc1cc([C@@H]2CCON2C(=O)C2CCN(c3nccc(C(N)=O)n3)CC2)cs1 [Ex. 168] | 0.0792 |  |
|  | N#Cc1cncc([C@@H]2CCON2C(=O)C2CCN(c3nccc(C(N)=O)n3)CC2)c1 [Ex. 004] |  | IC50 ([1]; Key compound table 4): 0.016 µM; IC50 (U937 cells; [3]): 0.022 µM |
| 0.0173 | Cc1cc([C@@H]2CCON2C(=O)C2CCN(c3nccc(C(N)=O)n3)CC2)co1 [compound 110, (S)-2-(4-(3-(5-methylfuran-3-yl)isoxazolidine-2-carbonyl)piperidin-1-yl)pyrimidine-4-carboxamide] | 0.00169 |  |
| 0.0103 | NC(=O)c1nc(N2CCC(C(=O)N3OCC[C@H]3c3cncc(F)c3)CC2)ncc1F [Ex. 080] | 0.00337 |  |
| 0.014 | COc1nc(N2CCC(C(=O)N3OCC[C@H]3c3cncc(C#N)c3)CC2)ncc1F [Ex. 114] | 0.00785 |  |
| 0.0336 | Cc1ncc([C@@H]2CCON2C(=O)C2CCN(c3cc(C(N)=O)ncn3)CC2)cc1F [compound 139, 6-[4-[(3S)-3-(5-fluoro-6-methyl-3-pyridyl)isoxazolidine-2-carbonyl]-1-piperidyl]pyrimidine-4-carboxamide] | 0.0447 |  |
| 0.0223 | Cc1cnc(N2CCC(C(=O)N3OCC[C@H]3c3cnccn3)CC2)nc1C(N)=O [Ex. 99] | 0.054 |  |
| 0.012 | COC(=O)c1ccnc(N2CCC(C(=O)N3OCC[C@H]3c3cncc(C#N)c3)CC2)n1 [Ex. 010, Methyl 2-[4-[(3S)-3-(5-cyano-3-pyridyl)isoxazolidine-2-carbonyl]-1-piperidyl]pyrimidine-4-carboxylate] |  | IC50 (U937 cells; Table 2, listed as 10, read-out: U937 IC50): 0.21 µM |
| 0.0239 | Cc1cncc([C@@H]2CCON2C(=O)C2CCN(c3nccc(C#N)n3)CC2)c1 [compound 131, (S)-2-(4-(3-(5-methylpyridin-3-yl)isoxazolidine-2-carbonyl)piperidin-1-yl)pyrimidine-4-carbonitrile] | 0.034 |  |

| IC50 ([1]; Table 1) [µM] | Compound | IC50 (U937 cells; [2]) [µM] | also measured |
| --- | --- | --- | --- |
| 0.0172 | Cc1cncc([C@@H]2CCON2C(=O)C2CCN(c3nccc(C#N)n3)CC2)n1 [Ex. 045] | 0.0664 |  |
|  | Cc1cncc([C@@H]2CCON2C(=O)C2CCN(c3nccc(C(N)=O)n3)CC2)n1 [Ex. 044] |  | IC50 ([1]; Key compound table 4): 0.009 µM; IC50 (U937 cells; [3]): 0.009 µM |
| 0.0489 | NC(=O)c1ccnc(N2CCC(C(=O)N3OCCC3c3ccc(N)nc3)CC2)n1 (racemic) [Ex. 036*] | 0.198 |  |
| 0.0107 | COC(=O)c1ccnc(N2CCC(C)(C(=O)N3OCC[C@H]3c3cncc(C#N)c3)CC2)n1 [Ex. 020, Methyl 2-[4-[(3S)-3-(5-cyano-3-pyridyl)isoxazolidine-2-carbonyl]-4-methyl-1-piperidyl]pyrimidine-4-carboxylate] | 0.118 |  |
| 0.0439 | N#Cc1cncc([C@@H]2CCON2C(=O)C2CCN(c3ccnc(Br)n3)CC2)c1 [Ex. 157] | 0.114 |  |
| 0.0318 | N#Cc1cncc([C@@H]2CCON2C(=O)C2CCN(c3cc(Cl)ncn3)CC2)c1 [Ex. 159] | 0.0771 |  |
| 0.0659 | Cc1ccc([C@@H]2CCON2C(=O)C2CCN(c3ncnc(C(N)=O)c3F)CC2)cn1 [compound 187, 5-fluoro-6-[4-[(3S)-3-(6-methyl-3-pyridyl)isoxazolidine-2-carbonyl]-1-piperidyl]pyrimidine-4-carboxamide; trifluoroacetic acid] | 0.321 |  |
| 0.0899 | NC(=O)c1cc(N2CCC(C(=O)N3OCC[C@H]3c3ccc(N)nc3)CC2)ncn1 (racemic) [Ex. 038*] | 1.71 |  |
| 0.0122 | 2-[(3R,4R)-4-[(3S)-3-(5-cyano-3-pyridyl)isoxazolidine-2-carbonyl]-3-fluoro-1-piperidyl]pyrimidine-4-carboxamide and 2-[(3S,4S)-4-[(3S)-3-(5-cyano-3-pyridyl)isoxazolidine-2-carbonyl]-3-fluoro-1-piperidyl]pyrimidine-4-carboxamide [Ex. 092] |  | IC50 (U937 cells; Table 2, read-out: U937 IC50): 0.0502 µM |
| 0.0416 | Cc1cncc([C@@H]2CCON2C(=O)C2CCN(c3cc(C(N)=O)ncn3)CC2)c1 [compound 134, (S)-6-(4-(3-(5-methylpyridin-3-yl)isoxazolidine-2-carbonyl)piperidin-1-yl)pyrimidine-4-carboxamide] | 0.148 |  |
| 0.407 | Cc1c(F)cncc1[C@@H]1CCON1C(=O)C1CCN(c2cc(C(N)=O)ncn2)CC1 [compound 142, (S)-6-(4-(3-(5-fluoro-4-methylpyridin-3-yl)isoxazolidine-2-carbonyl)piperidin-1-yl)pyrimidine-4-carboxamide] | 3 |  |
| 0.0175 | CSc1nc(N2CCC(C(=O)N3OCC[C@H]3c3cncc(C#N)c3)CC2)ncc1F [Ex. 103, 5-[(3S)-2-[1-(5-Fluoro-4-methylsulfanyl-pyrimidin-2-yl)piperidine-4-carbonyl]isoxazolidin-3-yl]pyridine-3-carbonitrile] | 0.00144 |  |
| 0.0372 | N#Cc1cc([C@@H]2CCON2C(=O)C2CCN(c3ncc(F)c(C(N)=O)n3)CC2)cs1 [Ex. 166] | 0.0597 |  |
| 0.0267 | NC(=O)c1ccnc(N2CCC(C(=O)N3OCCC3c3cncc(F)c3)CC2)n1 (racemic) [Ex. 050*] | 0.0329 |  |
| 0.0529 | CC(C)(C)OC(=O)N1CC(NC(=O)c2ccnc(N3CCC(C(=O)N4OCC[C@H]4c4cncc(C#N)c4)CC3)n2)C1 [compound 78, Tert-butyl 3-[[2-[4-[(3S)-3-(5-cyano-3-pyridyl)isoxazolidine-2-carbonyl]-1-piperidyl]pyrimidine-4-carbonyl]amino]azetidine-1-carboxylate] | 0.316 |  |
